Reference: patent US20260092039A1, “DUAL INHIBITORS FOR THE TREATMENT OF ALZHEIMER'S DISEASE” (UNIVERSITAT DE BARCELONA, priority 2023, published 2026)

Tests used:
[1] = target: T1, recombinant human sEH (hsEH) (Homo sapiens, UniProt P34913); test: In vitro determination of sEH inhibitory activity (fluorescent PHOME assay)
T1 sequence (P34913 1-555): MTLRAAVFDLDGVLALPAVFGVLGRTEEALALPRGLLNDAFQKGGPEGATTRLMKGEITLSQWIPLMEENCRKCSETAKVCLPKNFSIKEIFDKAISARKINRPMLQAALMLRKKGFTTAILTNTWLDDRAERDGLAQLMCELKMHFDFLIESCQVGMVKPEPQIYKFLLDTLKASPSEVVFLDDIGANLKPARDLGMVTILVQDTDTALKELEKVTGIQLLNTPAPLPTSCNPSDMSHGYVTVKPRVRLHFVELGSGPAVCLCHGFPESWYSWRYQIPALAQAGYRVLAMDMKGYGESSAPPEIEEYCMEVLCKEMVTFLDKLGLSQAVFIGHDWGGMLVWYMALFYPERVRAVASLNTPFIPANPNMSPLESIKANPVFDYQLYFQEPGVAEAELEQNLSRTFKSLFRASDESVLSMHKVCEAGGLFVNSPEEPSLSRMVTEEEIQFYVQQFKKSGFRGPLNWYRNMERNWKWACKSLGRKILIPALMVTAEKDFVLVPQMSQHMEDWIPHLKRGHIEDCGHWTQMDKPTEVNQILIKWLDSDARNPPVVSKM
Procedure: Control compound (TPPU): N-[1-(1-Oxopropyl)-4-piperidinyl]-N′-[4-(trifluoromethoxy)phenyl]urea.
Five μL of DMSO were added to background and positive control wells, and then 5 μL of inhibitor solution were added in the inhibitor wells. Five μL of the solution of hsEH were added to the positive control and inhibitor wells and the mixture was stirred. A 1/21 dilution of the solution of PHOME with assay buffer was prepared according to the final volume required, and then 105 μL of each well were added. The plate was carefully shaken for 10 seconds and was incubated for 5 minutes at room temperature. […] The intensity of fluorescence was used to analyze and calculate the IC50 values. Results were obtained by regression analysis from at least three data points in a linear region of the curve. IC50 values are average of minimum three independent replicates.

[2] = Parallel artificial membrane permeation assay for blood-brain barrier (PAMPA-BBB); type: in vitro ADME, porcine; conditions: for Papp: pig, PBS:EtOH (70:30), read-out: Blood-brain barrier permeability Pe; for CNS prediction: predictive penetration in the CNS from Pe
Procedure: A parallel artificial membrane permeation assay for blood-brain barrier (PAMPA-BBB) was used to evaluate the brain penetration of compounds of formula I, following the method described by L. Di et al., “High throughput artificial membrane permeability assay for blood-brain barrier”, European Journal of Medicinal Chemistry 2003, vol. 38. pp. 223-232. The in vitro permeability (Pe) of the test compounds through a lipid extract of porcine brain membrane was determined. Assayed compounds were tested using a mixture of PBS:EtOH (70:30). Assay validation was made by comparing the experimental and reported permeability values of a set of fourteen commercial drugs and a lineal correlation between experimental and reported permeability values of the fourteen commercial drugs was obtained (y=1.678 x−1.447; R^2=0.9313). From this equation and taking into account the limits established by Di et al. for BBB permeation, the ranges of permeability were established, as follows. Compounds of high BBB permeation (CNS+): Pe (10^−6 cm s^−1)>5.26; compounds of low BBB permeation (CNS−): Pe (10^−6 cm s^−1)<1.91; and compounds of uncertain BBB permeation (CNS+/−): 5.26>Pe (10^−6 cm s^−1)>1.91. The permeability results are averages of three different experiments in triplicate and a predictive penetration in the CNS is also given (Table 5).

[3] = target: T2, human recombinant glutaminyl cyclase (hQC) (Homo sapiens, UniProt Q16769); test: In vitro determination of human QC inhibitory activity (SensoLyte Green Glutaminyl Cyclase Activity Assay Kit); type: biochemical
T2 construct: purchased Eurogentec AS-72230
T2 sequence (Q16769 29-361): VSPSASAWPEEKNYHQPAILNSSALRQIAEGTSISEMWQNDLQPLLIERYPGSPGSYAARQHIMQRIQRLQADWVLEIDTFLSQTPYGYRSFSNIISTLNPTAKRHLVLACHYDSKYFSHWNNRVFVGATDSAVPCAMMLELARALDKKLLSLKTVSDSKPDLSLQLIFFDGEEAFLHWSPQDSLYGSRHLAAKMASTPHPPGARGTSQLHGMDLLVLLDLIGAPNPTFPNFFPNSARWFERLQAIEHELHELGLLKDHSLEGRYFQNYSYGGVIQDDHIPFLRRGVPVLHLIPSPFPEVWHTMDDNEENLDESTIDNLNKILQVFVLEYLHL
Procedure: Basic statistical analysis was performed.

Row | IC50 [1] | Papp [2] | IC50 [3] | Structure (SMILES) | CNS prediction [2]
1 | 95 nM | 13 ×10⁻⁶ cm/s | 1450 nM | Cc1cncn1CCCNC(=O)NCCC1C2CC3CC(C2)CC1C3 (stereo not shown) [Ip, 1-[2-(adamantan-2-yl)ethyl]-3-[3-(5-methyl-1H-imidazol-1-yl)propyl]urea] | CNS+ (Compounds of high BBB permeation (CNS+): Pe (10^−6 cm s^−1)>5.26)
2 | 185 nM | 5.8 ×10⁻⁶ cm/s | 460 nM | Cc1cncn1CCCNC(=O)NC12CC3CC(CC1C3)C2 [It, 1-(noradamantan-3-yl)-3-[3-(5-methyl-1H-imidazol-1-yl)propyl]urea] | CNS+ (Compounds of high BBB permeation (CNS+): Pe (10^−6 cm s^−1)>5.26)
3 | 103 nM | 7.5 ×10⁻⁶ cm/s | 540 nM | Cc1cncn1CCCNC(=O)NC12CC3(C)C4(C)CC1CC4(C)C3(C)C2 [Iv, 1-[3-(5-methyl-1H-imidazol-1-yl)propyl]-3-(3,4,8,9-tetramethyltetracyclo[4.4.0.0^3,9.0^4,8]decan-1-yl)urea] | CNS+ (Compounds of high BBB permeation (CNS+): Pe (10^−6 cm s^−1)>5.26)
4 | 23 nM | 9.8 ×10⁻⁶ cm/s | 205 nM | Cc1cncn1CCCNC(=O)N(C)C1C2CC3CC(C2)CC1C3 (stereo not shown) [Iy, 1-(adamantan-2-yl)-1-methyl-3-[3-(5-methyl-1H-imidazol-1-yl)propyl]urea] | CNS+ (Compounds of high BBB permeation (CNS+): Pe (10^−6 cm s^−1)>5.26)
